In US12055546B2, “Fluorescent probe for detecting carboxypeptidase activity” (THE UNIVERSITY OF TOKYO, priority 2018, dated 2024):

Tests used:
[1] = test system: Cc1ccc(/N=N/C(=O)N[C@@H](CCC(=O)O)C(=O)O)cc1-c1c2ccc(=O)cc-2oc2cc(O)ccc12; assay: Reactivity with PSMA purified enzyme (Example 6); format: biochemical, human; conditions: other: apparent dynamic parameter, PSMA added to various probe concentrations, Table 4; 37.0 °C
PSMA [2] = target: T1, PSMA (Homo sapiens, UniProt Q04609); assay: Enzyme assay with PSMA (Example 2), fluorescence spectrum and Michaelis-Menten plot; format: biochemical; conditions: for Fluorescence rise due to enzymatic reaction with PSMA: 10 μM probe, 0.44 μg PSMA, 37° C., 15 hours
T1 sequence (Q04609 whole entry): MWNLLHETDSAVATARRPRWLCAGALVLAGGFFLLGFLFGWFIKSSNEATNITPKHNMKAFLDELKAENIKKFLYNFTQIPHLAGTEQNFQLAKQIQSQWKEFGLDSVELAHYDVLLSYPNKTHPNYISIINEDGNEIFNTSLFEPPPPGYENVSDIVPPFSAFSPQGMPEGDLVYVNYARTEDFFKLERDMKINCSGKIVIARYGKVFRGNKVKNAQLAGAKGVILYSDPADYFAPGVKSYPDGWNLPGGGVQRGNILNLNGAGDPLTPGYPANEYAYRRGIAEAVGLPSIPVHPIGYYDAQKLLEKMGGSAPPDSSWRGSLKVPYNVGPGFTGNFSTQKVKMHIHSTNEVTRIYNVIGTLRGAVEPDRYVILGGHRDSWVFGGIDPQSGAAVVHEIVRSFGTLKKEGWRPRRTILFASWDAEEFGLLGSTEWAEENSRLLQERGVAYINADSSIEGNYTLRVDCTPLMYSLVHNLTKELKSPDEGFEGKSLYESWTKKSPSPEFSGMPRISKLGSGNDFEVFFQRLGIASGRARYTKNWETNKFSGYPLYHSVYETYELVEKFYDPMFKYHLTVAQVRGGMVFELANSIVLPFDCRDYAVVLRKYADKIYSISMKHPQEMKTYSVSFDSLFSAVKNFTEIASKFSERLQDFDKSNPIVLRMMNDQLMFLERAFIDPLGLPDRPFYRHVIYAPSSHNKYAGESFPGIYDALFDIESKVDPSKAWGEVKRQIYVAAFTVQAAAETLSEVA
Procedure: A change in the fluorescence spectrum due to the enzymatic reaction was measured as follows. The reactivity of 6-fluAFGlu to PSMA was evaluated by creating a Michaelis-Menten plot. • (1) Two solutions prepared by dissolving 10 μM probe in 200 μL of each assay buffer were provided. • (Assay buffer: 50 mM HEPES, 100 mM NaCl, pH 7.5) • (2) 0.44 μg of PSMA was added to each and incubated at 37° C. for 15 hours. For one of the solutions, a PSMA specific inhibitor 2-(Phosphonomethyl)-pentandioic acid (2-PMPA) (final concentration 10 μM) was also added at the same time and incubated at 37° C. for 15 hours. • (3) Each solution after the incubation in (2) was diluted to 2800 μL with 200 mM Na-Pi buffer, and the fluorescence spectrum was measured.
FIG. 1 illustrates the fluorescence spectrum of 5-fluAFGlu and 6-fluAFGlu after addition of PSMA and an inhibitor (2-PMPA, 10 μM) (S/N to 417 at 516 nm).

[3] = Absorption/fluorescence spectrum measurement; format: physicochemical; conditions: for Absorption maximum (nm) / Fluorescence maximum (nm) / Quantum yield: 200 mM phosphate buffer (pH 7.4); for Fluorescence under physiological conditions: as compared to fluorescein
Procedure: The absorption spectrum was measured using UV-2450 (SIMADZU), and the fluorescence spectrum was measured using F-7000 (HITACHI).
FIG. 9 and FIG. 10 illustrate the results of the absorption/fluorescence spectrum measurement of 2Me5GluAF-TG (Compound 32). […] The absorption spectrum was measured using UV-2450 (SIMADZU), and the fluorescence spectrum was measured using F-7000 (HITACHI).

[4] = test system: PC3 cell lysate (PSMA non-expressing prostate cancer cell); assay: Cell lysate assay, PC3; format: biochemical; conditions: probe 10 μM, 37° C.
Procedure: (§1) A PSMA specific inhibitor 2-PMPA (10 μM) was added to one of LNCaP cell lysate samples at the same time, and measurement was performed. • (2) The obtained fluorescence intensity of each lysate was normalized based on 0 minutes being set to 1, and then plot was performed with the incubation time on the horizontal axis.
(§2) A solution (20 μM, 100 μL) of 2Me5GluAF-TG (Compound 32) and a cell lysate (0.36 mg/mL, 100 μL) were reacted in TBS-T buffer at 37° C., and the fluorescence intensity was measured every 30 minutes. The measurement procedure is as described in Example 3.
(§3) Ex/em: 485/535 nm, n=3, probe final concentration: 10 μM, inhibitor (2-PMPA) concentration: 10 μM

[5] = test system: LNCaP (PSMA expressing cell); assay: Live cell assay on 96-well plate (plate reader); format: cell-based
Procedure: LNCaP as a PSMA expressing cell and PC3 as a PSMA non-expressing cell were cultured on a 96-well plate, a 10 μM aqueous solution of 6-fluAFGlu (Compound 25) was added thereto, and the cells were observed over time.

PSMA [6] = target: T1, PSMA; assay: Reactivity with PSMA purified enzyme (Example 6); format: biochemical
[7] = test system: LNCaP cell lysate (PSMA expressing prostate cancer cell); assay: Cell lysate assay, LNCaP; format: biochemical; conditions: probe 10 μM, 37° C.; for Increase in fluorescence in LNCaP cell lysate with inhibitor: 2-PMPA 10 μM
Procedure: as §1, §2, §3

PSMA [8] = target: T1, PSMA; assay: LC-UV/MS analysis of PSMA reaction solution; format: biochemical; conditions: 10 hours
Procedure: A solution, prepared after recombinant human PSMA and 2Me5GluAF-TG (Compound 32) were reacted for 10 hours, and 2Me5GluAF-TG and 2MeTG synthesized as preparations were subjected to LC-UV/MS analysis.
Probe concentration: 10 μM (2Me5GluAF-TG, enzyme reaction solution), 2 μM (2MeTG). The results are illustrated in FIG. 13 and FIG. 14.

[9] = test system: human prostate cancer surgical specimen; assay: Study using human prostate cancer surgical specimen; conditions: 2.50 μM probe solution in 1×TBS, 40° C., up to 4 hours
Procedure: • 1. Wash surgical specimen with 1×TBS buffer • 2. Add dropwise 2.50 μM of 2Me5GluAF-TG solution (diluted with 1×TBS buffer) so that the whole specimen is immersed. • 3. While heating to 40° C. with a heater, take a fluorescence image by Maestro for up to 4 hours • 4. Judge from the fluorescence image taken 4 hours after immersion, select and cut out several sites showing bright fluorescence and several sites showing no fluorescence, and fix with a 10% formalin solution • 5. Request a pathologist to perform HE staining/PSMA immunostaining on each site and evaluate a rate of cancer sites and PSMA expression
The results of using four types of specimens are illustrated in FIG. 21 to FIG. 24. FIG. 25 illustrates a result obtained by changing the above protocol (changing a method so that a surface is covered with gauze soaked in a probe solution, temporarily removing the gauze, and taking a fluorescence image). • (a) of each figure illustrates a photograph before immersion of the surgical specimen in a Me5GluAF-TG solution and a photograph taken 4 hours after the immersion (the right side is a fluorescence image). The graph on the left side of (b) illustrates a change in fluorescence intensity at a selected site of the surgical specimen from the immersion in the Me5GluAF-TG solution to 4 hours after the immersion. […]

[10] = test system: PC3 cells (PSMA non-expression); assay: Live cell imaging, PC3 cells (confocal microscope); format: cell-based; conditions: probe 10 μM in HBSS(+), image every 1 hour
Procedure: (§4) A solution (final concentration: 10 μM) of 2Me5GluAF-TG (Compound 32) diluted with HBSS(+) was added to LNCaP cells (high PSMA expression) or PC3 cells (PSMA non-expression), and a fluorescence image was taken by a confocal microscope every 1 hour under the following conditions while culturing at 37° C. and 5% CO2.

[11] = test system: LNCaP cells (high PSMA expression); assay: Live cell imaging, LNCaP cells (confocal microscope); format: cell-based
Procedure: as §4
A probe (2Me5GluAF-TG) and an inhibitor were added, and after culturing at 37° C. and 5% CO2 for 15 hours, a fluorescence image was taken with a confocal microscope. Probe concentration: 10 μM, inhibitor (2-PMPA) concentration: 10 μM, Ex/em: 490/500-600 nm, Scale bar: 50 μm.
Ten intracellular regions and ten extracellular regions were each surrounded by ROI, and an average value of the fluorescence intensity was calculated. FIG. 18a illustrates the taken fluorescence image, and FIG. 18b illustrates the average value of the fluorescence intensity with and without addition of the inhibitor.

LNCaP cells = assay: LC-UV/MS analysis of extracellular fluid after LNCaP imaging; format: cell-based
Procedure: After imaging of LNCaP cells using 2Me5GluAF-TG, a collected extracellular fluid, and 2Me5GluAF-TG and 2MeTG synthesized as preparations were subjected to the LC-MS analysis under the following conditions.
Probe concentration: 10 μM (2Me5GluAF-TG, extracellular fluid), 2 μM (2MeTG).

carboxypeptidase A (CPA) = target: T2, carboxypeptidase A (CPA) (Homo sapiens, UniProt P15085); assay: Enzyme assay with CPA; format: biochemical
T2 sequence (P15085 111-419): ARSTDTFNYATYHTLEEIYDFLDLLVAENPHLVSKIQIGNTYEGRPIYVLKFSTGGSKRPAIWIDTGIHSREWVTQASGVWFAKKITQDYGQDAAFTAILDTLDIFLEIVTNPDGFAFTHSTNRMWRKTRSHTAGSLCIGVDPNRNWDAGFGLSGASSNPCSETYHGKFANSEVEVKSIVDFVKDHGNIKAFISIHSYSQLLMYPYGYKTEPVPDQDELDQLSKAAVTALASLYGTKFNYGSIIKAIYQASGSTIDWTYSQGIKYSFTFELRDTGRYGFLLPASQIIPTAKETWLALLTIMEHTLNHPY
Procedure: • (1) First to third solutions prepared by dissolving 10 μM probe in 600 μL of each assay buffer were provided. • (Assay buffer: Tris-buffered saline (TBS)) (2) 2 μg of CPA was activated with 18 μL of 5 ng/mL trypsine solution for 1 hour • (3) 9 μL of the solution in (2) was added to the solution in (1), and the mixture was incubated at 37° C. for 5 hours. For one of the solutions, a CPA specific inhibitor; potato carboxypeptidase inhibitor (final concentration 10 μg/mL) was also added at the same time and incubated at 37° C. for 5 hours. • (4) 200 μL of each solution after the incubation in (3) was diluted to 2800 μL with 200 mM Na-Pi […], and the fluorescence spectrum was measured.

[12] = apparent dynamic parameter with PSMA, Table 2

recombinant human PSMA (Homo sapiens)
Km [1]: 4.3 µM
kcat [1]: 0.066 s⁻¹
kcat/Km [1]: 15300 M⁻¹ s⁻¹

O=C(O)CCC(NC(=O)N=Nc1ccc2c(c1)C(=O)OC21c2ccc(O)cc2Oc2cc(O)ccc21)C(=O)O (centres unmarked) [Compound 5-fluAFGlu]
Fluorescence rise due to enzymatic reaction with PSMA (PSMA [2]): only in 6-fluAFGlu
Absorption maximum (nm) [3]: 494 nm
Fluorescence maximum (nm) [3]: 521 nm
Quantum yield [3]: 0.003
Fluorescence under physiological conditions [3]: almost no fluorescencence

O=C(O)CCC(NC(=O)N=Nc1ccc(C(=O)O)c(-c2c3ccc(=O)cc-3oc3cc(O)ccc23)c1)C(=O)O (centres unmarked) [Compound 6-fluAFGlu]
Increase in fluorescence in PC3 cell lysate [4]: almost no increase in fluorescence was observed
Increase in fluorescence intensity in live LNCaP cells ([5]; 10 μM probe in TBS, compared to PC3): a significant increase in fluorescence intensity was observed in LNCaP compared to PC3
Increase in fluorescence in live LNCaP cells with inhibitor ([5]; 10 μM probe, 2-PMPA 10 μM): significantly suppressed
Fluorescence rise due to enzymatic reaction with PSMA (PSMA [2]): a fluorescence rise due to an enzymatic reaction was observed
Km (PSMA [2]; [12]): 2.4 µM
kcat (PSMA [2]; [12]): 0.00055 s⁻¹
S/N of fluorescence spectrum after addition of PSMA and inhibitor (PSMA [2]; at 516 nm, inhibitor 2-PMPA 10 μM): ~417
Absorption maximum (nm) [3]: 494 nm
Fluorescence maximum (nm) [3]: 526 nm
Quantum yield [3]: 0.002
Fluorescence under physiological conditions [3]: almost no fluorescencence
Km (PSMA [6]; apparent dynamic parameter, PSMA added to various probe concentrations, Table 4): 5 µM
kcat (PSMA [6]; apparent dynamic parameter, Table 4): 0.001 s⁻¹
Increase in fluorescence in LNCaP cell lysate with inhibitor [7]: almost no increase in fluorescence was observed
Increase in fluorescence in LNCaP cell lysate [7]: a significant increase in fluorescence was observed

Cc1ccc(/N=N/C(=O)N[C@@H](CCC(=O)O)C(=O)O)cc1-c1c2ccc(=O)cc-2oc2cc(O)ccc12 [Compound 2Me5GluAF-TG]
Stability of the probe (LC-UV/MS) (PSMA [8]; inhibitor (2-PMPA) added or absence of PSMA): stable
Products of the reaction with PSMA (LC-UV/MS) (PSMA [8]; probe 10 μM, in the presence of PSMA): 2MeTG and 2Me5OH-TG exhibiting fluorescence in the presence of PSMA were produced
Increase in fluorescence in PC3 cell lysate [4]: almost no increase in fluorescence was observed
Relation of fluorescence increase to cancer site / PSMA expression [9]: a rough correlation between the increase in fluorescence intensity and the presence or absence of the cancer site or a PSMA expression level
Fluorescence image in PC3 cells [10]: no change was observed in the fluorescence image
Fluorescence image intensity in LNCaP cells ([11]; probe 10 μM in HBSS(+), image every 1 hour): the fluorescence intensity of the fluorescence image increased with the passage of time
Fluorescence image intensity with inhibitor ([11]; probe 10 μM, 2-PMPA 10 μM, 15 hours): the intensity of the fluorescence image does not increase
Average fluorescence intensity inside versus outside the cell ([11]; probe 10 μM, no inhibitor, 15 hours): the average value of the fluorescence intensity inside the cell is much higher than that outside the cell
Product in extracellular fluid (LC-MS) (LNCaP cells; absence of the inhibitor (2-PMPA)): production of fluorescent 2MeTG was confirmed
Stability of the probe in extracellular fluid (LC-MS) (LNCaP cells; inhibitor added): stable
Φfl ([3]; 0.2M phosphate buffer (pH 7.4)): 0.002
λabs (nm) ([3]; Table 3): 495 nm
λem (nm) ([3]; Table 3): 516 nm
Fluorescence under physiological conditions [3]: almost no fluorescencence
Increase in fluorescence with PSMA (PSMA [6]; 10 μM probe, 0.44 μg PSMA, 1×TBS, 37° C.): the increase in fluorescence due to the enzymatic reaction was observed
Increase in fluorescence with PSMA in presence of inhibitor (PSMA [6]; inhibitor 2-PMPA 10 μM): No increase in fluorescence was observed
Increase in fluorescence in LNCaP cell lysate with inhibitor [7]: almost no increase in fluorescence was observed
Increase in fluorescence in LNCaP cell lysate [7]: a significant increase in fluorescence was observed

O=C(N=Nc1ccc(C(=O)O)c(-c2c3ccc(=O)cc-3oc3cc(O)ccc23)c1)NC(Cc1ccccc1)C(=O)O (centres unmarked) [Compound 6-fluAFPhe]
Fluorescence rise due to enzymatic reaction with CPA (carboxypeptidase A (CPA); 10 μM probe, 37° C., 5 hours): the fluorescence rise due to the enzymatic reaction was observed
S/N of fluorescence spectrum after addition of CPA1 and inhibitor (carboxypeptidase A (CPA); at 517 nm, potato carboxypeptidase inhibitor, 10 μM): ~13
Absorption maximum (nm) [3]: 494 nm
Fluorescence maximum (nm) [3]: 519 nm
Quantum yield [3]: 0.025
Fluorescence under physiological conditions [3]: almost no fluorescencence
